Where a SMILES comes first, the peptide text is derived from it. Bridges are numbered along the chain shown (N, C = ends).

Test [1] has as its target T1, beta-2-Microglobulin (β2m) (Homo sapiens, UniProt P61769).
T1 construct: purchased Sigma Aldrich (Germany)
The test is described as follows: Surface plasmon resonance (SPR) binding of peptides to immobilized β2m. The protocol: The interaction between the protein and computationally optimized peptides was measured using the BIAcore 3000 (GE Healthcare, Milano, Italy). β2m was immobilized at a concentration of 100 μg/mL in 10 mM acetate buffer pH 5 (flow rate 5 μL/min, time injection 7 min) on a CM5 Biacore sensor chip, using EDC/NHS chemistry following the manufacturer’s instructions. Residual reactive groups were deactivated by treatment with 1 M ethanolamine hydrochloride, pH 8.5. The reference channel was activated with EDC/NHS and deactivated with ethanolamine. The binding assays were carried out at 20 μL/min at 25 °C, with 4.5 min contact-time. Peptides were diluted in the HBS running buffer (10 mM Hepes, 150 mM NaCl, 3 mM EDTA, pH 7.4). Analyte injections were performed at the indicated concentrations. The sensor surface was regenerated by using 10mM NaOH for 1 min. The association phase (kon) was followed for 250 s, whereas the dissociation phase (koff) was followed for 300 s. The instrument BIAevaluation analysis package (version 4.1, GE Healthcare, Milano, Italy) was used to subtract the signal of the reference channel.

For test [2], the target named is T1, beta-2-Microglobulin (β2m). The test is described as follows: AFM differential height β2m binding (recognition) assay on dsDNA–peptide nanopatches. Conditions: 5 and 1.25 mg/mL β2m. Here is the method: After the nanografting process, the sample was thoroughly rinsed with 1M NaCl, TE1X buffer (DNA-free buffer), followed by a hybridization procedure with 200 nM of ssDNA–peptide conjugates solution in 1 M NaCl, Te1X at pH 7.2 and the hybridization process took place at 37 °C for 1 h. This was repeated for different concentrations of the ssDNA–pep381 so as to obtain the plots in Figure 7. Next, the sample was copiously rinsed with 1M NaCl, TE1X buffer (DNA-free buffer). This was to remove any un-bound molecules and other excess molecules that were not part of the hybridization. At the end of hybridization process before β2m binding assays, we performed AFM topographic imaging at low force (~0.2 nN) in contact mode and acquired AFM micrographs of all the nanografted nanoassemblages that had undergone hybridization. This imaging section allowed us to compare the AFM micrographs of ssDNA nanopatches to the same after hybridization with ssDNA–peptide conjugates and measure their respective relative heights.
The dsDNA–peptide nanoassemblages were incubated with the known concentration of β2m solution for a period of 1 h at 25 °C. […] Next, we measured the relative height of dsDNA–peptide assemblage after the binding assay using the section tool in Igor Pro 6.3A software. […]

T1 sequence (P61769 21-119): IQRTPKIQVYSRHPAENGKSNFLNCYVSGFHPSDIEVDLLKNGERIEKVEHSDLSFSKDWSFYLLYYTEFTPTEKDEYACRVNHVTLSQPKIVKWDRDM

On to `C[C@@H]1NC(=O)[C@H]([C@@H](C)O)NC(=O)[C@H](CCC(=O)O)NC(=O)[C@H](Cc2ccccc2)NC(=O)[C@@H](N)CSSC[C@@H](C(=O)O)NC(=O)[C@H](Cc2c[nH]c3ccccc23)NC(=O)[C@H](CCC(=O)O)NC(=O)[C@H](CC(N)=O)NC(=O)[C@H](CCC(N)=O)NC(=O)[C@H](CCCNC(=N)N)NC(=O)[C@H](Cc2c[nH]c3ccccc23)NC1=O` [pep331] (H-CFETAWRQNEWC-OH; disulfide 1-12), for which the kon in test [1] (BIAcore 3000, HBS pH 7.4, 25 °C, association followed for 250 s, χ^2 = 4.5) stood at 15 M⁻¹ s⁻¹. For the same compound, the off-rate (koff) in test [1] (BIAcore 3000, HBS pH 7.4, 25 °C, dissociation followed for 300 s, χ^2 = 4.5) was found to be 0.00449 s⁻¹. In addition, the “SPR affinity, in words” value in test [1] (SPR, 1:1 Langmuir) is “micromolar KD estimated values”.

With [CRRYSHQHYRHC] (disulfide) [pep381], in test [2], the “recognition of respective binding sites on β2m, in words” value is on record as “relatively high sensitivity”.

A word on the kon: it is a measure of how fast the partners come together. A low value points to slower complex formation. The koff is the first-order rate constant of dissociation. High values mean fast dissociation, low ones slow dissociation.

Values taken from paper PMC7831021, “Computational Evolution of Beta-2-Microglobulin Binding Peptides for Nanopatterned Surface Sensors” (International Journal of Molecular Sciences, 2021).
